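Cells were grown in 96-well plates and exposed to each compound for 48 hours at five concentrations; endpoints were interpolated linearly between bracketing concentrations, or set to the highest concentration if not reached. GI50 is the concentration that inhibits growth by half. At the TGI there is no net growth.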

Eight molecules from PubChem BioAssay (NCI) can be followed below.

Among the test systems are NCI-H522 lung; HOP-92 NSCLC; TK-10 renal; A549 NSCLC; SK-MEL-5 melanoma; OVCAR-4 ovarian; RPMI-8226 leukemia; ACHN renal; OVCAR-8 ovarian; SK-MEL-28 melanoma; T-47D breast; MDA-MB-231 breast; SN12C renal; HL-60(TB) leukemia; UO-31 renal; MDA-MB-435; BT-549 breast; SR leukemia.
Assay in all cases: NCI anticancer screen, dose series, 48 h

As to `COc1ccc(/C=C2\CC3C4CC=C5C[C@@H](O)CC[C@]5(C)C4CC[C@]3(C)C2=O)cc1OC` (stereo partly drawn), the TGI in the experiment with NCI-H522 lung is 57.6 µM; with HOP-92 NSCLC it was over 100 µM; with TK-10 renal, over 100 µM; in the experiment with A549 NSCLC, over 100 µM; with SK-MEL-5 melanoma, 21.9 µM; in the experiment on OVCAR-4 ovarian, over 100 µM. In addition, the TGI in the experiment on RPMI-8226 leukemia was 36.2 µM; in the experiment on ACHN renal, over 100 µM; with OVCAR-8 ovarian, over 100 µM; with SK-MEL-28 melanoma, over 100 µM; with T-47D breast, over 100 µM; with MDA-MB-231 breast, over 100 µM. For the same molecule, the TGI with SN12C renal is over 100 µM; in the experiment with HL-60(TB) leukemia, over 100 µM; in the experiment with UO-31 renal, 90.3 µM; in the experiment with MDA-MB-435 it was over 100 µM; with BT-549 breast, over 100 µM.
`CCOC(=O)c1c[nH]c2cc3c(cc2c1=O)CCS3`: the TGI in the experiment on NCI-H522 lung, in the experiment on HOP-92 NSCLC, in the experiment with TK-10 renal, in the experiment on A549 NSCLC, in the experiment on SK-MEL-5 melanoma and in the experiment on OVCAR-4 ovarian was over 100 µM each time. The TGI with RPMI-8226 leukemia, in the experiment on ACHN renal, in the experiment with OVCAR-8 ovarian, in the experiment on SK-MEL-28 melanoma, with T-47D breast and with MDA-MB-231 breast was over 100 µM in each case. For the same molecule, the TGI with SN12C renal, with HL-60(TB) leukemia, in the experiment with UO-31 renal, in the experiment on MDA-MB-435 and in the experiment with BT-549 breast was over 100 µM each time.
`Fc1ccc(C(OCCN2CCC3CCC(C2)N3C/C=C/c2cccnc2)c2ccc(F)cc2)cc1` (stereo not drawn): the TGI in the experiment on NCI-H522 lung was found to be 27 µM; in the experiment with HOP-92 NSCLC, 27 µM; in the experiment with TK-10 renal, 24 µM; with A549 NSCLC, 25.4 µM; with SK-MEL-5 melanoma, 14.9 µM; with OVCAR-4 ovarian it was 30.2 µM. Further, the TGI in the experiment on RPMI-8226 leukemia came out at 5.8 µM; with ACHN renal, 27.3 µM; in the experiment on OVCAR-8 ovarian it was 25.9 µM; in the experiment on SK-MEL-28 melanoma, 5.38 µM; in the experiment on T-47D breast, 31 µM; in the experiment on MDA-MB-231 breast, 26.6 µM. Further, the TGI in the experiment on SN12C renal was determined as 26.2 µM; in the experiment on UO-31 renal, 6.09 µM; in the experiment on MDA-MB-435, 24.3 µM; in the experiment on BT-549 breast it was 26.4 µM.
Take `CC(=O)Oc1ccc2c3c1[C@@H]1O[C@@H]1c1cccc(c1-3)[C@@H]1O[C@H]21`: the TGI with TK-10 renal stood at 6.12 µM; in the experiment with SK-MEL-5 melanoma it was 3.56 µM; with OVCAR-4 ovarian it was 5.48 µM; in the experiment with ACHN renal, 3.74 µM; in the experiment on OVCAR-8 ovarian it was 2.85 µM; in the experiment with T-47D breast, 5.42 µM. Moreover, the TGI with MDA-MB-231 breast is 3.64 µM; with HL-60(TB) leukemia, 4.87 µM; in the experiment on UO-31 renal it was 2.91 µM; in the experiment with MDA-MB-435, 3.38 µM; in the experiment with BT-549 breast, 3.98 µM. The results for the GI50 in the experiment with OVCAR-4 ovarian and in the experiment with MDA-MB-435 were 2.39 µM and 1.79 µM, respectively.
As to `O=C(CC(C(=O)c1cccs1)c1ccccc1)c1ccccc1O` (stereo not drawn), the TGI with NCI-H522 lung is 10.4 µM; in the experiment on HOP-92 NSCLC, over 38.9 µM; in the experiment on TK-10 renal it was over 74.5 µM; in the experiment on A549 NSCLC it was over 100 µM; with SK-MEL-5 melanoma, over 100 µM; with OVCAR-4 ovarian, over 64.2 µM. Also, the TGI with RPMI-8226 leukemia was over 100 µM; with SR leukemia, over 52.5 µM; in the experiment with ACHN renal it was over 44.8 µM; in the experiment on OVCAR-8 ovarian it was over 100 µM; with SK-MEL-28 melanoma, over 100 µM; with T-47D breast, over 40 µM. In addition, the TGI is over 30 µM with MDA-MB-231 breast; over 100 µM with SN12C renal; over 44 µM in the experiment with HL-60(TB) leukemia; over 100 µM in the experiment with UO-31 renal; over 100 µM in the experiment with BT-549 breast.
For the molecule `O=C(CSCC(=O)N/N=C/c1ccncc1)N/N=C/c1ccncc1`, the TGI with NCI-H522 lung, in the experiment with HOP-92 NSCLC, in the experiment on TK-10 renal, with A549 NSCLC, with SK-MEL-5 melanoma and in the experiment with OVCAR-4 ovarian was over 100 µM each time. Further, the TGI with RPMI-8226 leukemia, in the experiment with ACHN renal, with OVCAR-8 ovarian, with SK-MEL-28 melanoma, in the experiment with T-47D breast and in the experiment with MDA-MB-231 breast was over 100 µM throughout. Besides, the TGI with SN12C renal, in the experiment on HL-60(TB) leukemia, in the experiment with UO-31 renal, in the experiment with MDA-MB-435 and with BT-549 breast was over 100 µM throughout.
Regarding `C[C@]12CC[C@H]3[C@@H](CCC4=CC(=O)CC[C@@]43C)[C@@H]1CC[C@@H]2OC(=O)c1cccc2c(=O)c3ccccc3[nH]c12`, the TGI in the experiment on NCI-H522 lung, in the experiment with HOP-92 NSCLC, with TK-10 renal, in the experiment with A549 NSCLC, in the experiment with SK-MEL-5 melanoma and in the experiment on OVCAR-4 ovarian was over 100 µM in each case. Besides, the TGI in the experiment with RPMI-8226 leukemia is 87.7 µM; in the experiment on ACHN renal, over 100 µM; with OVCAR-8 ovarian it was over 100 µM; in the experiment with SK-MEL-28 melanoma it was over 100 µM; in the experiment with T-47D breast it was over 100 µM; in the experiment with MDA-MB-231 breast, over 100 µM. For the same molecule, the TGI with SN12C renal, in the experiment with UO-31 renal, with MDA-MB-435 and in the experiment with BT-549 breast was over 100 µM each time.
With `Nc1ccc2c(c1)S(=O)(=O)c1cc(N)ccc1-2`, the TGI in the experiment with NCI-H522 lung, in the experiment with HOP-92 NSCLC, in the experiment on TK-10 renal, in the experiment with A549 NSCLC, in the experiment with SK-MEL-5 melanoma and in the experiment with OVCAR-4 ovarian was over 100 µM throughout. Besides, the TGI in the experiment with ACHN renal, in the experiment on OVCAR-8 ovarian, in the experiment on T-47D breast, with MDA-MB-231 breast, in the experiment with SN12C renal and in the experiment on HL-60(TB) leukemia was over 100 µM each time. Also, the TGI in the experiment on UO-31 renal, in the experiment on MDA-MB-435 and in the experiment on BT-549 breast was over 100 µM each time.
